Residues, ends and D or L forms follow the SMILES beside them. *: point of attachment. DOTA = O=C(O)CN1CCN(CC(=O)O)CCN(CC(=O)*)CCN(CC(=O)O)CC1; X1 = Cc1ccc(CCCC(=O)NCCOCCOCCOCCOCC(=O)*)cc1; βAla = NCCC(=O)O
Key:
in vivo = experiment: in vivo; set-up: species or system mice; conditions: male, SCID, mouse, iv, total radioactivity
Method: (§1) The distribution of [^67Ga]Ga/[^111In]In/[^177Lu]Lu-DT14D was investigated in male severe combined immunodeficiency (SCID) mice (49 mice in total, 6 weeks of age on arrival date, 22 ± 4 g, NCSR “Demokritos” Animal House, Athens, Greece) bearing NTS1R-positive AsPC-1 xenografts in their flanks. For xenograft induction, suspensions of freshly harvested AsPC-1 cells (5 × 10^6 cells in 150 µL sterile PBS) were subcutaneously injected into the mice’s flanks. The animals were kept under aseptic conditions and 4 weeks later developed well palpable masses at the inoculation sites (100 ± 50 mg) and biodistribution was conducted. On the day of the experiment, the animals received a bolus (100 μL, in vehicle: saline/EtOH 9/1 v/v) containing the radioligand via the tail vein. The following groups of four animals per time point, per treatment, were included per radioligand (the 4 h block groups comprised 3 animals instead) including the respective (radio)ligand amounts injected: i. 78–91 kBq [^67Ga]Ga-DT14D corresponding to 7–17 pmol DT14D at 1 and 4 h pi plus 4 h block (coinjection with 100 µg NT); ii. 74–92 kBq [^111In]In-DT14D corresponding to 20–25 pmol at 4 h (controls), 4 h pi (Entresto®; animals receiving a slurry of 12 mg/200 µL Entresto® oral gavage 30 min in advance) and 4 h block (coinjection with 100 µg NT); 24 h pi (including both controls and Entresto® mice groups); and iii. 730 kBq [^177Lu]Lu-DT14D corresponding to 40 pmol DT14D at 4, 24, 48, and 72 h pi plus 4 h block (co-injection with 100 µg NT). The animals were euthanized at predetermined time intervals, dissected and blood samples, organs of interest, and tumors were collected, weighed, and counted in the gamma counter. Biodistribution data were calculated as percent of the injected activity per gram tissue (%IA/g) with the aid of suitable standards of the administered activity. Results as the mean %IA/g values ± sd were obtained and statistical analysis was performed with PRISM^TM GraphPad—10.2 Software (San Diego, CA/USA), applying 2-way ANOVA with Tukey’s post hoc analysis, or, in the case of two variables, Šídák’s multiple comparisons test was adopted; differences with p < 0.05 were considered as statistically significant.

[1] = test system: NTS1R-positive AsPC-1 xenografts; experiment: in vivo; set-up: species or system mice; conditions: male, SCID, mouse, iv
Method: as §1

## CC[C@H](C)[C@H](NC(=O)[C@H](Cc1ccc(O)cc1)NC(=O)[C@@H]1CCCN1C(=O)[C@H](CCCNC(=N)N)NC(=O)[C@H](CCCNC(=N)N)NC(=O)[C@H](CCCCNC(=O)COCCOCCOCCOCCNC(=O)CCCc1ccc(C)cc1)NC(=O)CCNC(=O)CCNC(=O)CCNC(=O)CN1CCN(CC(=O)O)CCN(CC(=O)O)CCN(CC(=O)O)CC1)C(=O)N[C@@H](CC(C)C)C(=O)O [[^67Ga]Ga-DT14D, metal not drawn] ({DOTA-βAla-βAla-βAla}-K(X1)RRPYIL-OH)
In vivo; Biodistribution, AsPC-1 Tumor
  tissue uptake at 1 h: 11.4 ± 1.25 %ID/g
In vivo; Biodistribution, Blood
  tissue uptake at 1 h: 9.52 ± 0.76 %ID/g
In vivo; Biodistribution, Femur
  tissue uptake at 1 h: 2.24 ± 0.23 %ID/g
In vivo; Biodistribution, Heart
  tissue uptake at 1 h: 2.86 ± 0.16 %ID/g
In vivo; Biodistribution, Intestines
  tissue uptake at 1 h: 2.81 ± 0.53 %ID/g
In vivo; Biodistribution, Kidneys
  tissue uptake at 1 h: 7.1 ± 1.12 %ID/g
In vivo; Biodistribution, Liver
  tissue uptake at 1 h: 3.74 ± 0.37 %ID/g
In vivo; Biodistribution, Lungs
  tissue uptake at 1 h: 4.31 ± 0.28 %ID/g
In vivo; Biodistribution, Muscle
  tissue uptake at 1 h: 1.14 ± 0.15 %ID/g
In vivo; Biodistribution, Pancreas
  tissue uptake at 1 h: 1.41 ± 0.12 %ID/g
In vivo; Biodistribution, Spleen
  tissue uptake at 1 h: 2.86 ± 0.33 %ID/g
In vivo; Biodistribution, Stomach
  tissue uptake at 1 h: 0.97 ± 0.27 %ID/g
  tissue uptake at 4 h: 0.45 ± 0.08 %ID/g
In vivo; Tumor/Blood ratio
  tissue to tissue ratio at 1 h: 1.2 ± 0.06
In vivo; Tumor/Heart ratio
  tissue to tissue ratio at 1 h: 3.99 ± 0.24
In vivo; Tumor/Intestines ratio
  tissue to tissue ratio at 1 h: 4.12 ± 0.52
In vivo; Tumor/Kidneys ratio
  tissue to tissue ratio at 1 h: 1.62 ± 0.13
  tissue to tissue ratio at 4 h: 1.15 ± 0.12
In vivo; Tumor/Liver ratio
  tissue to tissue ratio at 1 h: 3.05 ± 0.19
In vivo; Tumor/Lungs ratio
  tissue to tissue ratio at 1 h: 2.64 ± 0.15
  tissue to tissue ratio at 4 h: 3.28 ± 0.21
In vivo; Tumor/Muscle ratio
  tissue to tissue ratio at 1 h: 10.1 ± 1.09
In vivo; Tumor/Pancreas ratio
  tissue to tissue ratio at 1 h: 8.09 ± 0.24
In vivo; Tumor/Spleen ratio
  tissue to tissue ratio at 1 h: 4 ± 0.08
In vivo; Tumor/Stomach ratio
  tissue to tissue ratio at 1 h: 12.2 ± 2.71
  tissue to tissue ratio at 4 h: 9.96 ± 1.68

## CC[C@H](C)[C@H](NC(=O)[C@H](Cc1ccc(O)cc1)NC(=O)[C@@H]1CCCN1C(=O)[C@H](CCCNC(=N)N)NC(=O)[C@H](CCCNC(=N)N)NC(=O)[C@H](CCCCNC(=O)COCCOCCOCCOCCNC(=O)CCCc1ccc(C)cc1)NC(=O)CCNC(=O)CCNC(=O)CCNC(=O)CN1CCN(CC(=O)O)CCN(CC(=O)O)CCN(CC(=O)O)CC1)C(=O)N[C@@H](CC(C)C)C(=O)O [[^67Ga]Ga-DT14D] [metal not drawn] ({DOTA-βAla-βAla-βAla}-K(X1)RRPYIL-OH)
[1]; 4 h
  Biodistribution, Blood: 2.15 ± 0.40 %IA/g
  Biodistribution, Femur: 1.67 ± 0.36 %IA/g
  Biodistribution, Heart: 0.76 ± 0.12 %IA/g
  Biodistribution, Intestines: 2.32 ± 0.39 %IA/g
  Biodistribution, Kidneys: 3.87 ± 0.96 %IA/g
  Biodistribution, Liver: 3.44 ± 0.15 %IA/g
  Biodistribution, Lungs: 1.34 ± 0.20 %IA/g
  Biodistribution, Muscle: 0.27 ± 0.04 %IA/g
  Biodistribution, Pancreas: 0.51 ± 0.08 %IA/g
  Biodistribution, Spleen: 1.75 ± 0.67 %IA/g
  Tumor/Blood ratio: 2.06 ± 0.21
  Tumor/Heart ratio: 5.75 ± 0.17
  Tumor/Intestines ratio: 1.89 ± 0.06
  Tumor/Liver ratio: 1.28 ± 0.24
  Tumor/Muscle ratio: 16.50 ± 2.36
  Tumor/Pancreas ratio: 8.69 ± 0.52
  Tumor/Spleen ratio: 2.50 ± 0.23

## CC[C@H](C)[C@H](NC(=O)[C@H](Cc1ccc(O)cc1)NC(=O)[C@@H]1CCCN1C(=O)[C@H](CCCNC(=N)N)NC(=O)[C@H](CCCNC(=N)N)NC(=O)[C@H](CCCCNC(=O)COCCOCCOCCOCCNC(=O)CCCc1ccc(C)cc1)NC(=O)CCNC(=O)CCNC(=O)CCNC(=O)CN1CCN(CC(=O)O)CCN(CC(=O)O)CCN(CC(=O)O)CC1)C(=O)N[C@@H](CC(C)C)C(=O)O [[^111In]In-DT14D, metal not drawn] ({DOTA-βAla-βAla-βAla}-K(X1)RRPYIL-OH)
In vivo; Biodistribution, AsPC-1 Tumor
  tissue uptake at 24 h: 2.82 ± 0.68 %ID/g
In vivo; Biodistribution, Kidneys
  tissue uptake at 24 h: 1.7 ± 0.13 %ID/g
In vivo; Tumor/Intestines ratio
  tissue to tissue ratio at 24 h: 4.07 ± 0.42
In vivo; Tumor/Kidneys ratio
  tissue to tissue ratio at 24 h: 1.66 ± 0.4
In vivo; Tumor/Spleen ratio
  tissue to tissue ratio at 24 h: 1.77 ± 0.32

## CC[C@H](C)[C@H](NC(=O)[C@H](Cc1ccc(O)cc1)NC(=O)[C@@H]1CCCN1C(=O)[C@H](CCCNC(=N)N)NC(=O)[C@H](CCCNC(=N)N)NC(=O)[C@H](CCCCNC(=O)COCCOCCOCCOCCNC(=O)CCCc1ccc(C)cc1)NC(=O)CCNC(=O)CCNC(=O)CCNC(=O)CN1CCN(CC(=O)O)CCN(CC(=O)O)CCN(CC(=O)O)CC1)C(=O)N[C@@H](CC(C)C)C(=O)O [[^111In]In-DT14D] [metal not drawn] ({DOTA-βAla-βAla-βAla}-K(X1)RRPYIL-OH)
[1]; 4 h
  Biodistribution, Blood: 0.66 ± 0.19 %IA/g
  Biodistribution, Femur: 0.50 ± 0.06 %IA/g
  Biodistribution, Heart: 0.28 ± 0.06 %IA/g
  Biodistribution, Intestines: 1.34 ± 0.06 %IA/g
  Biodistribution, Liver: 0.45 ± 0.04 %IA/g
  Biodistribution, Lungs: 0.79 ± 0.12 %IA/g
  Biodistribution, Muscle: 0.13 ± 0.03 %IA/g
  Biodistribution, Pancreas: 0.24 ± 0.04 %IA/g
  Biodistribution, Spleen: 0.84 ± 0.07 %IA/g
  Biodistribution, Stomach: 0.39 ± 0.05 %IA/g
[1]; 24 h
  Biodistribution, Blood: 0.46 ± 0.08 %IA/g
  Biodistribution, Femur: 1.35 ± 0.36 %IA/g
  Biodistribution, Heart: 0.62 ± 0.23 %IA/g
  Biodistribution, Intestines: 0.69 ± 0.09 %IA/g
  Biodistribution, Liver: 0.33 ± 0.08 %IA/g
  Biodistribution, Lungs: 0.61 ± 0.09 %IA/g
  Biodistribution, Muscle: 0.40 ± 0.10 %IA/g
  Biodistribution, Pancreas: 0.63 ± 0.39 %IA/g
  Biodistribution, Spleen: 1.59 ± 0.14 %IA/g
  Biodistribution, Stomach: 0.27 ± 0.10 %IA/g
  Tumor/Intestines ratio: 3.16 ± 0.49
  Tumor/Kidneys ratio: 1.42 ± 0.25
  Tumor/Spleen ratio: 1.84 ± 0.15

## CC[C@H](C)[C@H](NC(=O)[C@H](Cc1ccc(O)cc1)NC(=O)[C@@H]1CCCN1C(=O)[C@H](CCCNC(=N)N)NC(=O)[C@H](CCCNC(=N)N)NC(=O)[C@H](CCCCNC(=O)COCCOCCOCCOCCNC(=O)CCCc1ccc(C)cc1)NC(=O)CCNC(=O)CCNC(=O)CCNC(=O)CN1CCN(CC(=O)O)CCN(CC(=O)O)CCN(CC(=O)O)CC1)C(=O)N[C@@H](CC(C)C)C(=O)O [[^177Lu]Lu-DT14D] [metal not drawn] ({DOTA-βAla-βAla-βAla}-K(X1)RRPYIL-OH)
[1]; 4 h
  Biodistribution, Blood: 0.72 ± 0.19 %IA/g
  Biodistribution, Femur: 0.45 ± 0.06 %IA/g
  Biodistribution, Heart: 0.32 ± 0.09 %IA/g
  Biodistribution, Intestines: 1.27 ± 0.14 %IA/g
  Biodistribution, Kidneys: 3.24 ± 0.20 %IA/g
  Biodistribution, Liver: 1.34 ± 0.14 %IA/g
  Biodistribution, Lungs: 1.63 ± 0.86 %IA/g
  Biodistribution, Muscle: 0.11 ± 0.02 %IA/g
  Biodistribution, Pancreas: 0.21 ± 0.03 %IA/g
  Biodistribution, Spleen: 1.36 ± 0.37 %IA/g
  Biodistribution, Stomach: 0.33 ± 0.12 %IA/g
  Tumor/Blood ratio: 5.51± 1.56
  Tumor/Heart ratio: 12.36 ± 3.08
  Tumor/Intestines ratio: 2.99 ± 0.57
  Tumor/Kidneys ratio: 1.17 ± 0.15
  Tumor/Liver ratio: 2.83 ± 0.45
  Tumor/Lungs ratio: 2.97 ± 1.75
  Tumor/Muscle ratio: 34.86 ± 6.98
  Tumor/Pancreas ratio: 18.16 ± 3.31
  Tumor/Spleen ratio: 2.83 ± 0.35
  Tumor/Stomach ratio: 12.29 ± 3.81
[1]; 24 h
  Biodistribution, Femur: 0.34 ± 0.03 %IA/g
  Biodistribution, Intestines: 0.45 ± 0.03 %IA/g
  Biodistribution, Liver: 1.18 ± 0.18 %IA/g
  Biodistribution, Lungs: 0.17 ± 0.01 %IA/g
  Biodistribution, Muscle: 0.03 ± 0.00 %IA/g
  Biodistribution, Spleen: 1.06 ± 0.16 %IA/g
  Tumor/Blood ratio: 33.51 ± 2.94
  Tumor/Heart ratio: 25.00 ± 3.78
  Tumor/Intestines ratio: 3.95 ± 0.39
  Tumor/Kidneys ratio: 1.46 ± 0.33
  Tumor/Liver ratio: 1.54 ± 0.32
  Tumor/Lungs ratio: 9.32 ± 2.56
  Tumor/Muscle ratio: 58.07 ± 8.34
  Tumor/Pancreas ratio: 22.31 ± 1.64
  Tumor/Spleen ratio: 1.70 ± 0.32
  Tumor/Stomach ratio: 31.97 ± 8.07

Reference: publication PMC11944670, “Reshaping [^99mTc]Tc-DT11 to DT14D Tagged with Trivalent Radiometals for NTS1R-Positive Cancer Theranostics” (Pharmaceutics, 2025)
